Laboratory results: US8716277B2, “Substituted imidazole compounds useful as positive allosteric modulators of mGlu5 receptor activity” (Boehringer Ingelheim International GmbH, priority 2011, dated 2014)
pEC50: −log10 of the molar value.

What follows are compounds tested against T1, human recombinant mGluR5 (Homo sapiens, UniProt P41594) (assay: positive modulation of mGluR5, calcium based FLIPR assay). Conditions: EC50 of the modulation; HEK 293 cell line expressing human recombinant mGluR5; glutamate at approximately 5% basal stimulation; peak height of Ca fluorescence signal.
T1 construct: expressed in transfected cells; host or cells: HEK 293
Procedure: The positive modulation of mGluR5 is measured in a HEK 293 cell line expressing human recombinant mGluR5 and is detected with calcium based FLIPR assay. The cells are cultured with DMEM supplemented with 10% FCS, 2 μg/mL tetracycline, 100 μg/mL hygromycin and 500 μg/mL gneticin. The cell culture media is exchanged for tetracycline-free cell culture media 3-7 days before the assay. One day before the assay the cell culture medium is exchanged to DMEM without glutamine and phenol red and supplemented with 10% FCS, 100 μg/mL hygromycin and 500 μg/mL geneticin. On the assay day, the medium of the subconfluent cultures is removed and the cells are detached by addition of 2.5 ml EDTA(0.02%) per 175 cm2 culture flask for 1 minute. The cells are resuspend in Ringer solution (140 mM NaCl, 5 mM KCl, 2.5 mM CaCl2, 1.5 mM MgCl2, 5 mM Glucose, 10 mM Hepes; adjusted to pH 7.4 with NaOH), pooled and Ringer solution added to adjust the volume to 50 mL. The cell suspension is centrifuged for […] at 1500 U/min (425 g). The supernatant is removed and the cells washed a second time with 50 ml fresh Ringer solution and centrifuged again as before. The supernatant is again removed and the pellet resuspended in Ringer solution to 1,000,000 cells/ml (1×10^6 cells/mL). The cells are plated onto BD BioCoat Poly-D-Lysine 384 well plates (20,000 cells/well; 20 μl/well). The lid covered plates are then incubated until use at 37° C./10% CO2. For dye loading, 20 μl of Calcium-4 assay kit solution (prepared according to the manufacturer's description in Ringer solution) are added to the cells and the plates are incubated for […] 37° C. and then […] at room temperature.
Controls, Compound Dilution and Assay Execution:
Each assay plate contained wells with “high” and “low” controls:
Low controls 1% DMSO/ringer solution + basal glutamate activation (defined as 100% CTL).
High controls 10 μM CDPPB+ basal glutamate activation (defined as 200% CTL).
Test compounds are dissolved and diluted in DMSO to 100-fold the desired concentrations. In a second step, the compounds are diluted in Ringer solution such that the compounds are 4-fold more concentrated than the desired final assay concentration. The final DMSO concentration was 1%.
20 μl of each compound solution are then transferred to the assay plate and the Ca2+ kinetic is measured to determine any intrinsic compound activity. After 5 mM incubation in the FLIPR device, the second stimulation with 20 μl of glutamate in Ringer solution (glutamate concentration adjusted to approximately 5% basal stimulation of the maximal possible glutamate effect) is added and the kinetic Ca2+ response of the wells was measured for the modulation effect.
The peak height of the Ca release related fluorescence signal (9-66) is used for the EC50. The EC50 of the modulation is calculated over a nonlinear regression with GraphPad Prism (Table 1).

T1 sequence (P41594 21-1212): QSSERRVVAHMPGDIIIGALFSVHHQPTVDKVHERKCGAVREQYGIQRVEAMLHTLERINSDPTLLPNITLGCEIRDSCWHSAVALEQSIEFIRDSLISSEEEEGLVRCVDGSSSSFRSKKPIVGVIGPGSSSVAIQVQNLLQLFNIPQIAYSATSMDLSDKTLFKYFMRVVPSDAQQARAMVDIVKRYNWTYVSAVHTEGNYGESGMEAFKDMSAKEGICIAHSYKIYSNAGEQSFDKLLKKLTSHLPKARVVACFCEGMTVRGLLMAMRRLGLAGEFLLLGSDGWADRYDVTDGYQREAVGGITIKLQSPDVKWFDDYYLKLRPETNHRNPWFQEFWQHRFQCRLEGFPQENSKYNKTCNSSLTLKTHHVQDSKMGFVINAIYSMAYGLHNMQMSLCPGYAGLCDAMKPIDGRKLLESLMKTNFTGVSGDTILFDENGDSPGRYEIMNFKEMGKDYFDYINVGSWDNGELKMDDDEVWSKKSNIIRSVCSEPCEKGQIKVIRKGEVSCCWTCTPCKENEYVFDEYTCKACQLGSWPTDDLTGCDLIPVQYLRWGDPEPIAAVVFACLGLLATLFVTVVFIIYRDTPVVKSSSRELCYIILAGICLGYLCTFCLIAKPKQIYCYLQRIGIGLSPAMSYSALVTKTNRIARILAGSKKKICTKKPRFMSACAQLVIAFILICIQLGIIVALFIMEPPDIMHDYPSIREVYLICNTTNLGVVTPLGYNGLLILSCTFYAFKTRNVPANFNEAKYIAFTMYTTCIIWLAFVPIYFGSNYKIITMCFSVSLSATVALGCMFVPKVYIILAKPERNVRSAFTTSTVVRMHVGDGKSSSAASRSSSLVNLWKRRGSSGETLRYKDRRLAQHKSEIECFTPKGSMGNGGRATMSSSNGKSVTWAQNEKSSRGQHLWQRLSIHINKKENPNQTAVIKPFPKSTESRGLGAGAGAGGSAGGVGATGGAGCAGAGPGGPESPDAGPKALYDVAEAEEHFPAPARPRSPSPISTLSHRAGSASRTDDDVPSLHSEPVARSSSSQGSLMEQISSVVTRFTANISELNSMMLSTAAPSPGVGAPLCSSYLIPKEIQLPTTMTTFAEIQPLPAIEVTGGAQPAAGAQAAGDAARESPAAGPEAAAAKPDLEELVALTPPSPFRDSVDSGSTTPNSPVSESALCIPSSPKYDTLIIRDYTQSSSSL

pEC50	Structure (SMILES)
7.28	Cc1ccc(-c2cn(-c3ccc(F)cc3)c(CC(=O)N3CCc4nc(N)sc4CC3)n2)cc1 [Example 7.02.05.]
6.90	COc1ccc(-c2cn(-c3ccccc3)c(CC(=O)N3CCc4nc(C)sc4CC3)n2)cc1 [Example 7.02.24.]
6.96	Nc1nc2c(s1)CCN(C(=O)Cc1nc(-c3ccc(F)cc3)cn1-c1ccc(F)cc1)CC2 [Example 7.01.02.]
7.15	Cc1cc(-c2cn(-c3ccc(F)cc3)c(CC(=O)N3CCc4nc(N)sc4CC3)n2)ccc1Cl [Example 7.02.16.]
6.40	COc1ccc(-c2cn(-c3ccccc3)c(CC(=O)N3CCc4nc(N)sc4CC3)n2)cc1 [Example 7.02.23.]
6.99	COc1ccc(-c2cn(-c3ccc(F)cc3)c(CC(=O)N3CCc4nc(N)sc4CC3)n2)cc1 [Example 7.02.11.]
5.84	COc1ccc(-c2cn(-c3ccccc3)c(CC(=O)N3CCc4nc(C)oc4C3)n2)cc1 [Example 7.02.25.]
7.48	Cc1nc2c(s1)CCN(C(=O)Cc1nc(-c3ccc(F)c(C)c3)cn1-c1ccccc1)CC2 [Example 7.02.29.]
7.15	Cc1cc(-c2cn(-c3ccccc3)c(CC(=O)N3CCc4nc(N)sc4CC3)n2)ccc1F [Example 7.02.26.]
7.41	COc1ccc(-c2cn(-c3ccc(F)cc3)c(CC(=O)N3CCc4nc(C)sc4CC3)n2)cc1 [Example 7.02.12.]

Further lines, the compound ahead of its results:

Structure (SMILES)	pEC50
Cc1cc(-c2cn(-c3ccc(F)cc3)c(CC(=O)N3CCc4nc(N)sc4CC3)n2)ccc1F [Example 7.02.20.]	7.15
Cc1ccc(-c2cn(-c3ccc(F)cc3)c(CC(=O)N3Cc4nc(C)sc4C3)n2)cc1 [Example 7.02.09.]	7.05
COc1cccc(N2CCN(C(=O)Cc3nc(-c4ccc(F)c(C)c4)cn3-c3ccccc3)CC2=O)c1 [Example 7.02.27.]	7.03
Cc1nc2c(s1)CCN(C(=O)Cc1nc(-c3ccc(F)c(C)c3)cn1-c1ccc(F)cc1)CC2 [Example 7.02.18.]	7.17
Cc1ccc(-c2cn(-c3ccc(F)cc3)c(CC(=O)N3CCc4nc(C)oc4C3)n2)cc1 [Example 7.02.04.]	6.43
Cc1nc2c(s1)CN(C(=O)Cc1nc(-c3ccc(F)cc3)cn1-c1ccc(F)cc1)C2 [Example 7.02.03.]	6.68
Cc1nc2c(o1)CN(C(=O)Cc1nc(-c3ccc(Cl)c(C)c3)cn1-c1ccc(F)cc1)CC2 [Example 7.02.17.]	7.10
Cc1ccc(-c2cn(-c3ccc(F)cc3)c(CC(=O)N3CCc4nc(C)sc4CC3)n2)cc1 [Example 7.02.06.]	7.03
COc1ccc(-c2cn(-c3ccc(F)cc3)c(CC(=O)N3CCN(c4cccc(C#N)c4)C(=O)C3)n2)cc1 [Example 7.02.30.]	7.09
COc1ccc(-c2cn(-c3ccc(F)cc3)c(CC(=O)N3CCN(c4cccc(OC)c4)C(=O)C3)n2)cc1 [Example 7.02.13.]	7.13
Cc1nc2c(s1)CN(C(=O)Cc1nc(-c3ccc(F)c(C)c3)cn1-c1ccccc1)C2 [Example 7.02.28.]	7.32
COc1cccc(-c2cn(-c3ccc(F)cc3)c(CC(=O)N3CCc4nc(C)sc4CC3)n2)c1 [Example 7.02.22.]	6.86
Cc1nc2c(o1)CN(C(=O)Cc1nc(-c3ccc(F)cc3)cn1-c1ccc(F)cc1)CC2 [Example 7.01.01., 2-(1,4-Bis-(4-fluoro-phenyl)-1H-imidazol-2-yl)-1-(2-methyl-6,7-dihydro-4H-oxazolo[5,4-c]pyridin-5-yl)-ethanone]	6.11
Cc1nc2c(s1)CCN(C(=O)Cc1nc(-c3ccc(Cl)c(C)c3)cn1-c1ccc(F)cc1)CC2 [Example 7.02.15.]	7.35
O=C(Cc1nc(-c2ccc(F)cc2)cn1-c1ccc(F)cc1)N1CCN(c2noc3ccccc23)CC1 [Example 7.02.02.]	6.94
COc1cccc(-c2cn(-c3ccc(F)cc3)c(CC(=O)N3CCc4nc(C)oc4C3)n2)c1 [Example 7.02.21.]	5.95
Cc1ccc(-c2cn(-c3ccc(F)cc3)c(CC(=O)N3CCN(c4cccc(C#N)c4)C(=O)C3)n2)cc1 [Example 7.02.08.]	7.49
Cc1nc2c(o1)CN(C(=O)Cc1nc(-c3ccc(F)c(C)c3)cn1-c1ccc(F)cc1)CC2 [Example 7.02.19.]	7.17
Cc1nc2c(s1)CCN(C(=O)Cc1nc(-c3ccc(F)cc3)cn1-c1ccc(F)cc1)CC2 [Example 7.02.01., 2-[1,4-Bis-(4-fluoro-phenyl)-1H-imidazol-2-yl]-1-(2-methyl-4,5,7,8-tetrahydro-thiazolo[4,5-d]azepin-6-yl)-ethanone]	7.03
COc1cccc(N2CCN(C(=O)Cc3nc(-c4ccc(C)cc4)cn3-c3ccc(F)cc3)CC2=O)c1 [Example 7.02.07.]	7.02
COc1ccc(-c2cn(-c3ccc(F)cc3)c(CC(=O)N3Cc4nc(C)sc4C3)n2)cc1 [Example 7.02.14.]	7.06
